Assays:
human FSH receptor = biological target: T1, human FSH receptor (Homo sapiens, UniProt P23945); assay: FSH receptor-dependent CRE-luciferase reporter gene assay (CHO FSH-R 6CRE-Luc, 1D7 cells); format: cell-based; conditions: for IC50: dose-response format in presence of EC50 of purified human FSH
T1 construct: host or cells: CHO-K1 (CHO FSH-R 6CRE-Luc, 1D7 cells)
T1 sequence (P23945 18-695): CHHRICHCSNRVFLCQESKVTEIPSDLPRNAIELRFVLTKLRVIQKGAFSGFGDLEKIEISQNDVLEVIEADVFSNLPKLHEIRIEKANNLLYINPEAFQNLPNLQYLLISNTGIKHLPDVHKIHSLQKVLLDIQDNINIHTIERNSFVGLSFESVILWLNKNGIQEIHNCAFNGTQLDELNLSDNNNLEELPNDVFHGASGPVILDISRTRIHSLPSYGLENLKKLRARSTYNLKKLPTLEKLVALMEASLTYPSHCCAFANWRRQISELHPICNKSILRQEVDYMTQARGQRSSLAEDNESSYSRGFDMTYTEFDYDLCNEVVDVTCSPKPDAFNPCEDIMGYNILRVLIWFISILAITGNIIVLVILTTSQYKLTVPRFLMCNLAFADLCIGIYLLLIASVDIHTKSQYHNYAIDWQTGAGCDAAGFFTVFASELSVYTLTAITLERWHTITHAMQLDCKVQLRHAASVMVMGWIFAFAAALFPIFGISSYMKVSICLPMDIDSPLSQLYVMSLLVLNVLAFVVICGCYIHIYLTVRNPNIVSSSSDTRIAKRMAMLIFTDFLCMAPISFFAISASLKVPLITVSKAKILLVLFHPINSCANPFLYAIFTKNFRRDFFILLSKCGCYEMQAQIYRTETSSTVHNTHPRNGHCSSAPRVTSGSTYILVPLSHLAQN
Method: This procedure was used to identify and determine the relative potencies of human FSH receptor antagonists using a Chinese hamster ovarian cell line that stably produces the human FSH receptor and a luciferase reporter gene regulated by cAMP response elements.
The compounds were subsequently diluted in DMSO to working dilutions of 1 and 20 or 30 mM for 2-dose testing format and 1 μM-10 mM for dose-response format. The DMSO dilutions were diluted 500-fold in sterile growth medium [D-MEM/F-12 (GIBCO/BRL; Grand Island N.Y.) containing 15 mM HEPES, 2 mM 1-glutamine, pyridoxine hydrochloride, phenol red and 5% FetalClone II (HyClone Laboratories, Inc; Logan, Utah), 0.2% DMSO, 100 units penicillin G/ml, and 100 μg streptomycin sulfate/ml (GIBCO/BRL)]. The concentration of the vehicle in each of the compound dilutions was the same. POSITIVE CONTROLS: Purified human FSH (>98%) was purchased from Cortex Biochem, Inc. (San Leandro, Calif.) and a known FSH-R thiazolidinone antagonist was obtained from the Wyeth Research compound repository. Preparation of Cells
The CHO FSH-R 6CRE-Luc cells (1D7 cells) were obtained from Affymax (Palo Alto, Calif.). These Chinese hamster ovary cells (CHO-K1) were genetically engineered to stably express the recombinant human FSH receptor gene and a luciferase reporter gene under the regulation of 6 copies of a cAMP response element. The cells were plated one day prior to treatment into 96-well white opaque plates at a density of 50,000 cells/100 μl/well in growth medium. On the day of treatment, the growth medium was removed from the wells by aspiration and 50 µl of fresh growth medium was added to each well. The cells were incubated at 37° C. in a humidified incubator with 5% CO2/95% air.
The treated cells were incubated for 4 hours at 37° C. in a humidified incubator with 5% CO2/95% air. At the end of the incubation period, luciferase activity was measured by chemiluminescence using a commercially available kit (LucScreen, Tropix, Inc., Bedford, Mass.) according to the manufacturer's specifications, except that Buffer 1 and Buffer 2 were mixed together in equal proportion prior to the addition of 100 μl of the combined reagents to each well. Chemiluminescence was detected using a luminometer (EG & G Berthold Microlumat LB 96 P, Wallac, Gaithersburg, Md.) with chemiluminescence measured for 1 sec/well.
Background luminescence was measured for each well prior to the addition of the LucScreen reagent.
In the 96-well 2-dose format, each compound was tested in duplicate at each dose. […] One plate was used to test a maximum of 22 compounds.
The EC50 of purified human FSH alone was tested in triplicate with each test compound. The doses chosen to test each compound were extrapolated from the initial 2-dose screening process. Along with the test compounds, purified human FSH was also tested in a dose response (0.03, 0.1, 0.3, 1, 3, 10, and 30 ng/ml) for a positive control and quality control. One plate was used for 3 test compounds and the FSH positive control.
Luciferase activity is expressed as relative light units/sec/well. Luciferase activity in antagonist was compared to the appropriate negative and positive controls. For 2-dose testing, results are reported as luciferase activity and are expressed as % inhibition of the response obtained from the EC50 of FSH. For dose-response testing, results are reported as IC50 values. Data were analyzed statistically by one-way analysis of variance with appropriate weighting and transformation and relevant paired test as determined by Biometrics (Wyeth Research, Princeton, N.J.). IC50 values were calculated using the Stat/Excel program developed by Biometrics with appropriate weighting and transformation.

hFSH-R = biological target: T2, hFSH-R (Homo sapiens, UniProt P23945); assay: cAMP accumulation (RIA) in CHO-3D2 cells (hFSH-R), hFSH-induced; format: cell-based; conditions: for Emax: read-out: cAMP % Efficacy
T2 construct: expressed in transfected cells; host or cells: CHO-3D2 cells
T2 sequence (P23945 18-695): T1 sequence (P23945 18-695)
Method: COMPOUND VEHICLE: Stock compounds were solubilized in 100% DMSO (Sigma Chemical Co.) at a concentration of 30 mM. The compounds were subsequently diluted in sterile assay medium consisting of Opti-MEM® I (Life Technologies) with 0.1% (w/v) BSA (Sigma), prior to use in the bio-assay. The final concentration of DMSO in the assay is 0.1%.
Plated cells are then incubated at 37° C. in a humidified 5% CO2/95% air, atmosphere.
On the day of the assay, cells were washed three times with 100 μl/well of assay medium consisting of Opti-MEM® I (Life Technologies) with 0.1% (w/v) BSA (Sigma). Medium was removed and 100 μl of assay medium was added to each well. Plates were incubated for an additional 30 minutes at 37° C. […] Reactions were terminated by the addition of 50 μl of 0.2N hydrochloric acid to each well and cAMP-accumulation was measured by radioimmunoassay (RIA) using a commercially available kit (Amersham).
All test compounds were evaluated in a dose-response paradigm ranging from about 0.01 to about 30 μM. Controls and test compounds were evaluated in quadruplicate in a 96-well format.
Along with the test compounds, FSH was also run as a positive control in the agonist mode using concentrations ranging from about 0.1-1000 ng/ml.
Data were analyzed by one-way analysis of variance and significant differences between treatments and control determined by Least Significant Difference test.
Test compounds were compared to the effect of purified human FSH.

| Structure (SMILES) | IC50 (human FSH receptor) | IC50 (hFSH-R) | Emax (hFSH-R) | melting point | inhibition at 30 µM (human FSH receptor; 2-dose format, test concentration 30 μM in parentheses, % inhibition of the response to EC50 of FSH) |
| --- | --- | --- | --- | --- | --- |
| COc1ccccc1-c1ccc(C(=O)N2Cc3ccc(C(=O)NCc4cccn4C)n3Cc3ccccc32)cc1 [Example 2, 10-[(2′-Methoxy-1,1′-biphenyl-4-yl)carbonyl]-N-[(1-methyl-1H-pyrrol-2-yl)methyl]-10,11-dihydro-5H-pyrrolo[2,1-c][1,4]benzodiazepine-3-carboxamide] | 42.6 µM | 1.2 µM | 79% | 148 to 150 °C |  |
| Cc1cc(CNC(=O)c2ccc3n2Cc2ccccc2N(C(=O)c2ccc(-c4c(C)cccc4C)c(C)c2)C3)no1 [Example 4, N-[(5-Methylisoxazol-3-yl)methyl]-10-[(2,2′,6′-trimethyl-1,1′-biphenyl-4-yl)carbonyl]-10,11-dihydro-5H-pyrrolo[2,1-c][1,4]benzodiazepine-3-carboxamide] | > 30 µM |  |  | 233 to 234 °C |  |
| COc1ccccc1-c1ccc(C(=O)N2Cc3ccc(C(=O)NCc4cc(C)on4)n3Cc3ccccc32)cc1 [Example 5, 10-[(2′-Methoxy-1,1′-biphenyl-4-yl)carbonyl]-N-[(5-methylisoxazol-3-yl)methyl]-10,11-dihydro-5H-pyrrolo[2,1-c][1,4]benzodiazepine-3-carboxamide] | 10.2 µM | 0.6 µM | 96% | 111 to 113 °C |  |
| COc1ccccc1-c1ccc(C(=O)N2Cc3ccc(C(=O)NCc4cc(C)oc4C)n3Cc3ccccc32)cc1 [Example 6, N-[(2,5-Dimethyl-3-furyl)methyl]-10-[(2′-methoxy-1,1′-biphenyl-4-yl)carbonyl]-10,11-dihydro-5H-pyrrolo[2,1-c][1,4]benzodiazepine-3-carboxamide] | 3.3 µM | 0.3 µM | 81% |  |  |
| COc1ccccc1-c1ccc(C(=O)N2Cc3ccc(C(=O)NCC4CN(Cc5ccccc5)CCO4)n3Cc3ccccc32)cc1 (centres unmarked) [Example 7, N-[(4-Benzylmorpholin-2-yl)methyl]-10-[(2′-methoxy-1,1′-biphenyl-4-yl)carbonyl]-10,11-dihydro-5H-pyrrolo[2,1-c][1,4]benzodiazepine-3-carboxamide] |  |  |  | 180 to 182 °C | 26% |
| COc1ccc(-c2nc(CNC(=O)c3ccc4n3Cc3ccccc3N(C(=O)c3ccc(-c5ccccc5C)c(C)c3)C4)no2)cc1 [Example 10, 10-[(2,2′-Dimethyl-1,1′-biphenyl-4-yl)carbonyl]-N-{[5-(4-methoxyphenyl)-1,2,4-oxadiazol-3-yl]methyl}-10,11-dihydro-5H-pyrrolo[2,1-c][1,4]benzodiazepine-3-carboxamide] |  |  |  | 133 to 135 °C |  |

Continued, values first:

| IC50 (human FSH receptor) | IC50 (hFSH-R) | Emax (hFSH-R) | melting point | inhibition at 30 µM (human FSH receptor; 2-dose format, test concentration 30 μM in parentheses, % inhibition of the response to EC50 of FSH) | Structure (SMILES) |
| --- | --- | --- | --- | --- | --- |
| > 30 µM |  |  | 222 to 224 °C |  | Cc1cc(C(=O)N2Cc3ccc(C(=O)NCc4cccn4C)n3Cc3ccccc32)ccc1-c1c(C)cccc1C [Example 8, N-[(1-Methyl-1H-pyrrol-2-yl)methyl]-10-[(2,2′,6′-trimethyl-1,1′-biphenyl-4-yl)carbonyl]-10,11-dihydro-5H-pyrrolo[2,1-c][1,4]benzodiazepine-3-carboxamide] |
|  |  |  | 198 to 201 °C |  | Cc1ccccc1-c1ccc(C(=O)N2Cc3ccc(C(=O)NCc4csc(-c5ccc(Cl)cc5)n4)n3Cc3ccccc32)cc1C [Example 11, N-{[2-(4-Chlorophenyl)-1,3-thiazol-4-yl]methyl}-10-[(2,2′-dimethyl-1,1′-biphenyl-4-yl)carbonyl]-10,11-dihydro-5H-pyrrolo[2,1-c][1,4]benzodiazepine-3-carboxamide] |
| > 30 µM |  |  |  |  | Cc1ccccc1-c1ccc(C(=O)N2Cc3ccc(C(=O)NCC4CCCNC4)n3Cc3ccccc32)cc1C (centres unmarked) [Example 12, 10-[(2,2′-Dimethyl-1,1′-biphenyl-4-yl)carbonyl]-N-(piperidin-3-ylmethyl)-10,11-dihydro-5H-pyrrolo[2,1-c][1,4]benzodiazepine-3-carboxamide] |

— US7687623B2, “Pyrrolobenzodiazepines and heterocyclic carboxamide derivatives as follicle stimulating hormone receptor (FSH-R) antagonists” (Wyeth LLC, priority 2005, dated 2010)
